The term inhibition denotes how much of the control response was suppressed. Low values mean a weak effect, high ones a strong effect.

The source of these data is ChEMBL document CHEMBL1157477, “Cembrane diterpenoids from the taiwanese soft coral Sarcophyton stolidotum” (2008).

Values after ≈ are worked out from the molar mass of the structure shown. Active and inactive are the calls of the source. No cut-off for these calls is given here.

Holding throughout (format): functional
Assay [1] has as its system HeLa. Briefly: Cytotoxicity against human HeLa cells at 10 ug/ml by MTT assay. Background: Tetrazolium dyes change colour on reduction, which living cells bring about.
In assay [2] the test system is WiDr. Briefly: Cytotoxicity against human WiDr cells at 10 ug/ml by MTT assay.
Assay [3] deals with Daoy. Briefly: Cytotoxicity against human Daoy cells.

On to `C/C1=C/C(=O)CC2=C[C@@H](OC2=O)[C@H](C(C)C)CC(=O)/C(C)=C/CC1` [SARCOSTOLIDE D], for which the inhibition at 10 µg/mL in assay [1] turned out to be 11.1%; in assay [2] it was 29.1%. Moreover, the result in assay [3] was inactive.
Consider `C/C1=C/C/C=C(\C)C(=O)C[C@H](C(C)C)[C@H]2C=C(CC(=O)C1)C(=O)O2` [SARCOSTOLIDE F], for which the inhibition at 10 µg/mL is 7.32% in assay [1] and 29.8% in assay [2]. Moreover, in assay [3], the result was inactive.
Regarding `C/C1=C/C(=O)CC2=C[C@@H](OC2=O)[C@@H](C(C)C)CC(=O)/C(C)=C/CC1` [SARCOSTOLIDE B], the inhibition at 10 µg/mL stood at 5.88% in assay [1] and 8.31% in assay [2]. In addition, in assay [3], the result was inactive.
`C/C1=C/C=C/[C@H](C)C(=O)C[C@H](C(C)C)[C@H]2C=C(CC(=O)C1)C(=O)O2` [SARCOSTOLIDE E]: the inhibition at 10 µg/mL was 16.8% in assay [1] and 27.5% in assay [2]. The EC50 in assay [3] (read-out: ED50 (the source's name)) was determined as 5.5 µg/mL (≈ 16.6 µM).
With `C/C1=C\CC[C@@H](C)CC(=O)CC2=C[C@@H](OC2=O)[C@@H](C(C)C)CC1=O` [SARCOSTOLIDE G], the inhibition at 10 µg/mL in assay [1] was 18.4%; in assay [2] it was 20.1%. Also, the outcome in assay [3] was inactive.
For `C/C1=C\C(=O)CC2=C[C@@H](OC2=O)[C@@H](C(C)C)CC(=O)/C(C)=C/CC1` [SARCOSTOLIDE C], the figures for the inhibition at 10 µg/mL in assay [1] and in assay [2] were 1.65% and 19.4%, respectively. In addition, the outcome in assay [3] was inactive.
Turning to `C/C1=C/CC/C(C)=C/C(=O)CC2=C[C@@H](OC2=O)[C@@H](C(C)C)CC1=O` [SARCOSTOLIDE A], the inhibition at 10 µg/mL in assay [1] was determined as 22.3%; in assay [2], 20%. The result in assay [3] was inactive.
